Patent publication US12491188B2, “Small molecule PARG inhibitors and methods of use thereof” (Board of Regents, The University of Texas System, priority 2019, dated 2025)

Experiments:
[1] = tested on: MDA-MB-231 control and PARG-KD cells; assay: Sulforhodamine B (SRB) cytotoxicity, control vs PARG-KD cells; type: cell-based, human; conditions: 72 h
Description: Sulforhodamine B (SRB) Cytotoxicity Assay.

MRC-5 cells = conditions: SRB
Description: Sulforhodamine B (SRB) Cytotoxicity Assay. […] Colorimetric or fluorescence analysis was performed in a FlexStation 3, using SoftMax Pro 7.0, Molecular Devices. Normalized graphs were generated with Prism 8 software, non-linear 4-parameter data fitting was performed for IC50 calculation.

HeLa cells = assay: DNA fiber assay, replication fork progression; type: cell-based; conditions: 10 μM, 2 hrs pretreatment
Description: DNA fiber assay. DNA fiber assay was conducted as described previously (Castillo et al. 2014). Briefly, cells pretreated with JA2131 (10 μM) or DMSO for 2 hrs were labeled with 100 μM CldU for 30 min and exposed to 250 μM IdU (with or without 0.4 mM hydroxyurea treatment) for another 30 min or 3 hrs. After labeling and treatment, cells were lysed and DNA fibers stretched onto glass slides. Immunofluorescence was carried out using α-IdU/α-BrdU (BD Biosciences) and α-CldU/α-BrdU (Abcam) and secondary antibodies, including Alexa Fluor 488 (green) and Alexa Fluor 555 (Invitrogen). Images were taken using a Nikon 80 microscope and analyzed using ImageJ software. Statistics were calculated using Prism software. 5-Chloro-2′-deoxyuridine (CIdU) and 5-Iodo-2′-deoxyuridine (IdU) were from Sigma.

[2] = tested on: MDA-MB-231 control and PARG-KD cells; assay: Western blot of cellular PARylation (anti-PAR); type: cell-based, human
Description: Thus, dose-dependent JA2131-induced cellular PARylation with and without IR was investigated. For combined IR treatment, MDA-MB-231 cells were treated with JA2131 for 2 h, followed by 7 Gy X-ray and then allowed to recover for an hour before cellular extraction and Western blotting analysis.
Using shRNA, next, a stable MDA-MB-231 PARG knockdown (PARG-KD) cell-line was generated (FIG. 23). Comparison of PARGi JA2131-induced PARylation in PARG-KD and control cells was performed. It was reasoned that PARG-KD cells would show a reduced response to a selective PARGi as the stable PARG-KD cells would have to adopt a PARG-independent survival mechanism. MDA-MB-231 control cells and PARG-KD cells were treated with JA2131 then total cell lysates were subjected to immunoblotting with anti-PAR antibody, followed by immunodetection for anti-PARG, PARP1 and actin antibody (FIG. 22b). Untreated PARG-KD cells show a higher baseline level of PARylation than the control cells. […] Dose-response curves comparing control and PARG-KD cells further validate the selective action of JA2131 on control cells expressing PARG, but not on the PARG-KD cells (FIG. 25).
Antibodies and western blots. Cells were grown in 6-well plates and 10 cm dishes, treated with PARGi for 2 hours, irradiated and recovered for 1 hour before harvesting. Cells were irradiated, ranging from 1 to 10 Gy using RAD SOURCE, RS-2000, Biological System, RadSource.com. Cells were washed with phosphate buffer and saline (PBS) and lysed with buffer containing 50 mM Hepes, pH 7.5, 1% (v/v) igepal-C630, 1 mg/ml bacitracin, 1 mM EDTA, 10 mM NaF, 1 mM sodium orthovanadate, 10% (v/v) glycerol, 50 mM NaCl, 1 mM PMSF, and Protease Inhibitor Cocktail Set III (EMD Millipore). The detergent-soluble fraction was used for Western blotting. Cell fractionation was carried out using the Subcellular Protein Fractionation Kit (#78840, ThermoFisher) according to the manufacturer's instruction. Primary antibodies were purchased from the following sources; Actin, γH2AX and Histone-H3 was from Cell Signaling Technology. H2AX and LAMB1 were from Invitrogen/ThermoFisher. PCNA and p53 were from Santa Cruz biotechnology. Anti-PAR (10H) was from EMD Millipore, anti-PARG was from Cell Signaling Technology, and Anti-PARP1 was from ABCAM. Secondary antibodies were conjugated HRP (Cell Signaling) and ECL Clarity was purchased from Bio-Rad. All primary and secondary antibodies were diluted 1:1000 with 5% non-fat Blotting Grade Blocking Reagent in 1× TBST, except for anti-PAR 1:500.

PARP1 = PARP1 (Homo sapiens (Human), UniProt P09874); assay: In vitro PARP1 auto-PARylation
Sequence of PARP1 (P09874 whole entry): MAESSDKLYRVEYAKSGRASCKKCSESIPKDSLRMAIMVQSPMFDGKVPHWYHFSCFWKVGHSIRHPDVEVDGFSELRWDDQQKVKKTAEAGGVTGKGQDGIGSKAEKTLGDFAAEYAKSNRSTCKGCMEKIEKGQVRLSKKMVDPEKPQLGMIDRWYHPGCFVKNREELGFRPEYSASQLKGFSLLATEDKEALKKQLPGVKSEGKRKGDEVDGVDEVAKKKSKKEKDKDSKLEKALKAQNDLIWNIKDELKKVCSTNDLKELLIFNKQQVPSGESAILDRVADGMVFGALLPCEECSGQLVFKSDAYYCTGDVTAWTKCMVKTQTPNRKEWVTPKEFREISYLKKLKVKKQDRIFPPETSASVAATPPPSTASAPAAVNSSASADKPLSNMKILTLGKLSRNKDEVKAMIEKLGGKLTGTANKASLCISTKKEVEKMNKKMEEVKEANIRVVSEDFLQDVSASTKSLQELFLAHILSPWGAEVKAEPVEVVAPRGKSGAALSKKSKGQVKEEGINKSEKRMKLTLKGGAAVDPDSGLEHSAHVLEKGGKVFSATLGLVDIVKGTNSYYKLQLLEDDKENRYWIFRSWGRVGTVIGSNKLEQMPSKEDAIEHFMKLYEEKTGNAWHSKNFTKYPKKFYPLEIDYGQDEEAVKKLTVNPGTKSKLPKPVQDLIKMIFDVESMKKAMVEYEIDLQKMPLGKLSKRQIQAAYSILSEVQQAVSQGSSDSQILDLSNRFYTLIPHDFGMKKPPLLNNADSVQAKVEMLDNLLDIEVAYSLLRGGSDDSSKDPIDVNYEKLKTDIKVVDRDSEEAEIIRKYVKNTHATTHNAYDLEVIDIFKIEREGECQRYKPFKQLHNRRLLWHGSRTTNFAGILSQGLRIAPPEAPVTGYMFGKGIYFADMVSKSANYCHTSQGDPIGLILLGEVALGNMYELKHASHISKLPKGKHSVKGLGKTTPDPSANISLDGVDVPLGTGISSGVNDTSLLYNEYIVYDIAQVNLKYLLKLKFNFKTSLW

O=C1C(Cl)=C(Cl)C(Cl)(Cl)C(Cl)=C1Cl [JA2131]
IC50 value for PARG-depleted cells compared to control cells [1]: ~10 fold | PARG-KD cells that responded to the PARGi [1]: 50% | cytotoxic dose in MRC-5 cells relative to MDA-MB-231 cells (MRC-5 cells): an order of magnitude higher | average IdU tract (HeLa cells; absence of genotoxic stress): 6.0 μm | average IdU tract length (HeLa cells; low dose of hydroxyurea): 5.0 μm | cellular PARylation, PARGi combined with IR ([2]; MDA-MB-231, 100 nM, 2 h, 7 Gy X-ray, 1 h recovery): massive increase in cellular PARylation | cellular PARylation, PARGi alone ([2]; MDA-MB-231, without IR, 1 to 5 μM doses): dose-dependent increase in cellular PARylation | PAR accumulation in PARG-KD cells ([2]; MDA-MB-231 PARG knockdown cells): did not affect the level of PAR accumulation | PAR accumulation in control cells expressing PARG ([2]; MDA-MB-231 control cells): measurable increase in PAR | concentration up to which PARP1 activation was not inhibited (PARP1; in vitro PARP1 auto PARylation): > 100 µM | effect on PARP1 auto-PARylation / PAR synthesis by PARP1 (PARP1; increasing concentration of compound): no effect
